Source: the supplement of paper PMC10307832

Legend:
Assay in all cases: relative viability (nuclei count vs DMSO), 5 days (fraction); higher = more cells survive
Salubrinal + Lapatinib = compound: O=C(/C=C/c1ccccc1)NC(NC(=S)Nc1cccc2cccnc12)C(Cl)(Cl)Cl [Salubrinal] + CS(=O)(=O)CCNCc1ccc(-c2ccc3ncnc(Nc4ccc(OCc5cccc(F)c5)c(Cl)c4)c3c2)o1 [Lapatinib] (partner 2 µM)
Procedure, shortened: (§1)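 Values are medians from duplicate plates. Each reflects relative viability, defined as the nuclei count of treated wells over that of vehicle wells. Lung cancer cell lines in 1536-well plates were pin-tool dosed one day after seeding with one drug alone or with a fixed anchor-drug dose plus five library-drug doses (not always all listed) in √10 steps, then fixed, stained and imaged at 4× after 5 days.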

[1] = compound: Cc1ccc2nc(NCCN)c3ncc(C)n3c2c1 + N=C(N)NC(=N)NCCc1ccccc1 [Phenformin] (partner 250 µM)
Procedure, shortened: as §1

[2] = compound: Cc1ccc2nc(NCCN)c3ncc(C)n3c2c1 + O=C(CCCCCCC(=O)Nc1ccccc1)NO [Vorinostat] (partner 1 µM)
Procedure, shortened: as §1

Salubrinal + Vorinostat = compound: O=C(/C=C/c1ccccc1)NC(NC(=S)Nc1cccc2cccnc12)C(Cl)(Cl)Cl [Salubrinal] + O=C(CCCCCCC(=O)Nc1ccccc1)NO [Vorinostat] (partner 1 µM)
Procedure, shortened: as §1

Cell Line	relative viability (Salubrinal + Lapatinib; first compound 0.08 µM)	relative viability (Salubrinal + Lapatinib; first compound 0.253 µM)	relative viability (Salubrinal + Lapatinib; first compound 0.8 µM)	relative viability (Salubrinal + Lapatinib; first compound 2.53 µM)	relative viability (Salubrinal + Lapatinib; first compound 8 µM)	relative viability ([1]; first compound 0.04 µM)	relative viability ([1]; first compound 0.1265 µM)	relative viability ([1]; first compound 0.4 µM)	relative viability ([1]; first compound 1.265 µM)	relative viability ([1]; first compound 4 µM)	relative viability ([2]; first compound 0.04 µM)	relative viability ([2]; first compound 0.1265 µM)	relative viability ([2]; first compound 0.4 µM)	relative viability ([2]; first compound 1.265 µM)	relative viability ([2]; first compound 4 µM)	relative viability (Salubrinal + Vorinostat; first compound 0.08 µM)	relative viability (Salubrinal + Vorinostat; first compound 0.253 µM)	relative viability (Salubrinal + Vorinostat; first compound 0.8 µM)	relative viability (Salubrinal + Vorinostat; first compound 2.53 µM)	relative viability (Salubrinal + Vorinostat; first compound 8 µM)
NCI-H838	1.1	0.914	1.23	1.03	0.674	0.655	0.602	0.587	0.543	0.568	0.8	0.685	0.685	0.708	0.61	0.764	0.736	0.728	0.697	0.751
NCI-H1755	1.24	0.794	1.11	1.04	0.966	0.661	0.665	0.581	0.625	0.583	0.806	0.899	0.728	0.696	0.857	0.815	0.831	0.973	0.911	0.745
HCC-78	0.4	0.795	1.06	0.788	0.832	0.81	0.694	0.71	0.697	0.601	0.502	0.426	0.402	0.383	0.436	0.473	0.446	0.472	0.451	0.441
IA-LM	0.742	0.536	0.916	0.856	0.593						0.92	0.917		1.06	0.981	0.974	0.645	0.882	0.816	1.03
NCI-H322M	0.606	0.589	0.669	0.657	0.517	0.882	0.701	0.767	0.798	0.759	0.991	0.86	0.957	1	1.09	0.909	0.85	0.831	0.89	0.85
NCI-H3122	1.12	1.02	1.04	1.1	0.959	0.411	0.379	0.399	0.36	0.288	1.13	1.28	1.01	1.05	1.37	1.16	1	0.989	1.05	1.09
COR-L23	1.38	0.626	1.37	1	0.539	0.464	0.448	0.45	0.468	0.37	0.511	0.46	0.417	0.374	0.375	0.471	0.419	0.534	0.323	0.356
NCI-H2087	1.04	1.06	1.16	0.93	1.1	0.464	0.491	0.423	0.482	0.477	0.435	0.657	0.611	0.884	0.675	0.981	0.368	0.67	0.676	0.762
LC-2-ad	1.07	0.608	1.1	0.971	0.868	0.637	0.546	0.55	0.547	0.44	0.724	0.689	0.652	0.69	0.689	0.735	0.644	0.692	0.651	0.665
NCI-H1915	0.981	0.683	1.04	1	0.963	0.359	0.384		0.377	0.359	0.515	0.506	0.422	0.555	0.454	0.516		0.614	0.521	0.471
NCI-H1623						0.586	0.618	0.657	0.684	0.567										
NCI-H2023	0.747	0.936	1.04	0.814	0.606	0.466	0.409	0.434	0.437	0.349	0.682	0.689	0.568	0.682	0.638	0.9	0.7	0.746	0.737	0.613
NCI-H1792	1.11		1.64	0.914	0.873	0.308	0.436		0.411	0.358										
ChaGo-K-1						0.534	0.544	0.485	0.412	0.435	0.751	0.832	0.771	0.657	0.766	0.834	0.683	0.901	0.814	0.77
NCI-H522						0.695	0.708	0.622	0.689	0.543	0.825	0.971	0.677	0.92	1.09	1.03	0.944	0.972	0.889	0.844
NCI-H1299	0.96	0.924	0.98	0.918	0.883															
SW 900						0.594	0.6		0.674	0.849		0.517	0.415	0.421	0.487	0.735	0.379	0.731	0.505	0.804
A549	1.08	0.954	1.03	0.939	0.886	0.209	0.199	0.166	0.111	0.118										
NCI-H1563	0.992	1.05	0.975	0.886	0.882	0.652	0.684	0.662	0.65	0.654										
LCLC-103H						0.342	0.349	0.332	0.365	0.348	0.859	0.821	0.686	0.697	0.751	0.725	0.716	0.891	0.714	0.748
NCI-H441						0.791	0.85	0.922	0.923	0.769	0.925	0.822	0.848	0.806	0.731	0.824	0.563	1.18	0.605	0.616
